In test [1] the target is Carbonic anhydrase 1 (Homo sapiens, UniProt P00915). Kind of test: Competitive Displacement Binding Assay. The conditions noted are these: pH 7; 25 °C. On the procedure:
(§1) The dissociation constant of the hCA and inhibitor complex was determined by competitive displacement of a fixed concentration of dansylamide by increasing concentrations of the inhibitor using Perkin-Elmer lambda 50-B spectrofluorometer. […] The dissociation constant of the enzyme-inhibitor complex was determined by monitoring the decrease in the fluorescence of the enzyme-dansylamide complex as a function of the increasing concentration of the inhibitor.

In test [2] the target is Carbonic anhydrase 2 (Homo sapiens, UniProt P00918). Kind of test: Competitive Displacement Binding Assay. The conditions noted are these: pH 7; 25 °C. On the procedure: as §1

Chain of Carbonic anhydrase 1 (P00915 whole entry): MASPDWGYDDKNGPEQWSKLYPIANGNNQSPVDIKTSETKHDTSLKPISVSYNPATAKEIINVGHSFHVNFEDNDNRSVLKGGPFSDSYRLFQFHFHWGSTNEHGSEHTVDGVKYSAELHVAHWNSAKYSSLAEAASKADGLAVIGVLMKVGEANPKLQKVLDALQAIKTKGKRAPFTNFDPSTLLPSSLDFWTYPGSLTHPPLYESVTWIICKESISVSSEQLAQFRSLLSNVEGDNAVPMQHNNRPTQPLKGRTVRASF

Regarding `NS(=O)(=O)c1ccc(CCNC(=O)c2ccc(CN(CC(=O)O)CC(=O)O)cc2)cc1` [copper(2+) ion 2-[(carboxylatomethyl)[(4-{[2-(4-sulfamoylphenyl)ethyl]carbamoyl}phenyl)methyl]amino]acetate], the Kd was 0.2 µM in test [1] and 0.235 µM in test [2].

Values taken from BindingDB's records for doi:10.1021/ja057257n (University of Pennsylvania, 2006).
